Measurements from patent US12428666B2, “Compositions and methods related to kethoxal derivatives” (The University of Chicago, priority 2018, dated 2025).
Entries after “also recorded” stand apart in the source; their conditions may differ.

What was measured:
[1] = system: RNA G-quadruplexes (rG4) in HeLa cell; assay: Keth-seq of rG4 regions with or without PDS treatment; format: cell-based, human; settings: HeLa cell mRNA, 105 regions
Description: The characterization of RNA G-quadruplexes (rG4) in vivo remains challenging. Because of its high specificity towards guanine, the rG4 structure is a good object of N3-kethoxal to probe. It has been reported that PDS treatment can induce the formation of rG4 inside cells based on immunofluorescence imaging. Keth-seq was tested for the ability to identify rG4 structures induced by PDS inside cells. Keth-seq libraries were prepared using mRNA isolated from HeLa cell with or without PDS treatment. Previously identified rG4 structure regions (n=13,423 from in vitro probing) were analyzed in the Keth-seq data, and detected hundreds of regions with potential secondary structure (FIG. 14d). […] As the regions that form rG4 in vivo are more […], their structures were compared in terms of GINI index. […] Two examples were included where the signal in the defined rG4 regions in the PDS sample is lower than that in the control sample (FIG. 7f).

RNA of mouse ES cells = assay: Keth-seq RT stop distribution; format: cell-based
Description: A library was prepared following icSHAPE protocol with slight changes (Spitale et al., Nature 519:486-90, 2015). The detailed protocol is described below. For in vitro library preparation, RNA was isolated and refolded in RNA folding mix buffer firstly (100 mM HEPES, pH 8.0, 100 mM NaCl, 10 mM MgCl2). The refolded RNA was treated with N3-kethoxal and then utilized for library construction. For in vivo study, N3-kethoxal was added into the cultural medium of mES cell and the RNA was isolated to be utilized for library construction.
Sequencing data processing. As the library structure is similar to icSHAPE technique, a similar strategy was used to preprocess the sequencing reads. Pipeline from icSHAPE protocol was used to conduct the data analysis, all the scripts can be accessed at URL github.com/qczhang/icSHAPE. Firstly, script readCollapse.pl was used to collapse the reads with default parameter. […] Enriched reactivity for each transcript was calculated by comparing kethoxal sample (foreground) versus control sample (background) using script calcEnrich.pl (-w factor5:scaling1 -x 0.25). […]

N3-kethoxal labelled RNA [2] = assay: Fixation of N3-kethoxal modification in RNA by borate buffer; format: physicochemical; settings: final concentration 50 mM
Description: Fixation of N3-kethoxal modification in RNA. The labile N3-kethoxal modification in RNA can be fixed in the presence of borate buffer. The solution of N3-kethoxal labelled RNA was mixed with 1/10 volume of stock borate buffer (final concentration: 50 mM; stock borate buffer: 500 mM potassium borate, pH 7.0, pH was monitored while adding potassium hydroxide pellets to 500 mM boric acid). The borate buffer fixation was used in various steps of keth-seq protocol, see below.

N3-kethoxal labelled RNA [3] = assay: Reversibility of N3-kethoxal labelled RNA with excess GTP (MALDI-TOF, dot blot); format: physicochemical; settings: for time for almost complete removal of N3-kethoxal modification on labeled RNA: excessive GTP (50 mM)
Description: Removal N3-kethoxal modification from N3-kethoxal labelled RNA. The detailed protocol of N3-kethoxal modification erasing is described below “N3-kethoxal-remove sample preparation” in the keth-seq protocol. Generally, the purified N3-kethoxal modified RNA was incubated with high concentration of GTP (½ volume of the reaction solution, final concentration 50 mM) at 37° C. for 6 hours or at 95° C. for 10 mins. Higher temperature benefits the removal the N3-kethoxal modification.

[4] = system: single-strand RNA (ssRNA); assay: Selectivity of N3-kethoxal to ssRNA by denaturing gel electrophoresis; format: biochemical
Text: The complementary RNA oligoes FS1 (5'-[…] NO:1, Fluorescent RNA oligo) and […]

guanine = assay: Reaction of N3-kethoxal with RNA nucleic bases and RNA oligos (HPLC, MALDI-TOF); format: biochemical
Description: The reaction of N3-kethoxal and RNA was generally performed with the following protocol: 100 pmol RNA oligo and 1 μmol N3-kethoxal was incubated in total 10 μL solution in PBS buffer at 37° C. for 10 mins. […] The purified labelled RNA can be used for further studies such as mass spectrometry, gel electrophoresis and copper-free click reaction with biotin-DBCO.
MALDI-TOF-MS analysis of N3-kethoxal labelled RNA oligo. […] Meanwhile the buffer exchange occurred from PBS buffer to tris buffer that can be directly used in MALDI-TOF-MS experiment without extra desalt step. One microliter of product solution was mixed with one microliter matrix which include 8:1 volume ratio of 2′4′6′-trihydroxyacetophenone (THAP, 10 mg/mL in 50% CH3CN/H2O):ammonium citrate (50 mg/mL in H2O). Then the mixture was spotted on the MALDI sample plate, dried and analyzed by Bruker Ultraflextreme MALDI-TOF-TOF Mass Spectrometers.
The product of N3-kethoxal with for RNA nucleic bases was analyzed using LC-6AD (Shimadzu, Japan) HPLC instrument, which equipped with an Inertsil ODS-SP column ([…], 250×4.6 mm) (GL Science Inc. Japan). The phase A (100 mM TEAA buffer, pH=7.0) and phase B (CH3CN) were used as eluents with a flow rate of 1 mL/min at 35° C. (B conc.: 5-5-30%/0-5-30 min).

[5] = system: living mouse embryonic stem cells (mESCs); assay: In vivo labeling of living mES cells, dot blot of isolated biotinylated RNA; format: cell-based
Description: In vivo study: 10 μL N3-kethoxal was added into the cell culture medium in 100 mm cell culture dish with nearly 80% confluent mES cells. After incubation at 37° C. in CO2 incubator for a specific time, the medium was aspirated and the cells were washed three times by PBS. The total RNA was isolated by Trizol™ reagent (Invitrogen, 15596026) or Qiagen RNeasy™ plus mini kit (Qiagen, 74134). mRNA was isolated by Dynabeads™ mRNA DIRECT™ Purification Kit (Invitrogen, 61011). The biotinylation step was same as in vitro study. The biotinylated RNA was purified by RNA clean & concentrator.
Dot blot assay: one microliter RNA (100 ng/uL) sample was spotted onto the Amersham Hybond-N+ membrane (RPN119B, GE Healthcare) and UV crosslinked to the membrane by UVP HL-2000 hybriLinker. The membrane was washed using 1×PBST (0.1% tween-20) and blocked with 5% nonfat dry milk in 1×PBST overnight at 4° C. After four times wash using 1×PBST with ten-minute interval, the streptavidin-horseradish peroxidase (1:15000 dilution, streptavidin-HRP, Life Technologies, S-911) in 1×PBST with 3% BSA was added and incubated at room temperature for 40 mins. Then then membrane was washed using 1×PBST with ten-minute interval again and developed by SuperSignal™ West Pico PLUS Chemiluminescent Substrate (Thermo Scientific, 34577). The membrane was washed by 1×PBST again and stained by methylene blue solution (0.02% methylene blue in 0.3 M sodium Acetate pH 5.2).

[6] = 50 mM GTP, neutral buffer, 37° C., MALDI-TOF

| SMILES | GINI index of known rG4 regions vs control sample [1] | guanine share of RT-stopped sites among all reads (RNA of mouse ES cells; N3-kethoxal sample) | G-stop sites with treatment time (keth-seq) (RNA of mouse ES cells; mES cell, 1 min vs 5 mins treatment) | stability of N3-kethoxal labeled RNA in borate buffer (N3-kethoxal labelled RNA [2]) | N3-kethoxal modification in mRNA after 10 mins incubation (N3-kethoxal labelled RNA [3]; 50 mM GTP, 95° C., dot blot) | kethoxal modification after 2 h incubation (N3-kethoxal labelled RNA [3]; [6]) | kethoxal modification after 6 h incubation (N3-kethoxal labelled RNA [3]; [6]) | time for almost complete removal of N3-kethoxal modification on labeled RNA (N3-kethoxal labelled RNA [3]; 37° C.) | time for almost complete removal of N3-kethoxal modification on labeled RNA (N3-kethoxal labelled RNA [3]; 95° C.) | gel shift on double-stranded RNA after incubation ([4]; double-stranded RNA) | gel shift on single-stranded RNA after incubation ([4]; single-stranded RNA) | labelling of RNA oligo (MALDI-TOF molecular weight of product) (guanine; 12 mer RNA oligo with 4 guanines) | reaction with four RNA nucleic bases (HPLC) (guanine; G, A, C, U) | labeling activity compared with SHAPE reagent NAI (guanine; RNA oligo) | cell permeability ([5]; added directly to culture medium of living cells) | time to label DNA and RNA in living cells ([5]; living cells) | dot blot signal saturation with incubation time ([5]; mESCs, 1, 5, 10, 15, 20 mins) |
| --- | --- | --- | --- | --- | --- | --- | --- | --- | --- | --- | --- | --- | --- | --- | --- | --- | --- |
| NCCOc1cc(C(=O)Nc2cc(OCCN)c3ccccc3n2)nc(C(=O)Nc2cc(OCCN)c3ccccc3n2)c1 [PDS] | higher GINI index than the control sample |  |  |  |  |  |  |  |  |  |  |  |  |  |  |  |  |
| CC(OCCN=[N+]=[N-])C(=O)C(O)O (centres unmarked) [N3-kethoxal, 3-(2-azidoethoxy)-1,1-dihydroxybutan-2-one] |  | > 80% | G-stop sites were increased from 1 min to 5 mins | stabilized in borate buffer | removed thoroughly | largely removed | almost removed | ≤ 6 h | ≤ 0.167 h | no such shift was detected | a shift was observed | all guanines (4 guanines) were modified | can only react with guanine (G) and was inert with A, C, and U | higher labeling activity | highly cell-permeable; also recorded: could permeate the living cell efficiently even during one-minute incubation; also recorded: excellent cell permeability | ≤ 5 min | saturated within five minutes |
